Among the data in ChEMBL document CHEMBL3991601, “The target landscape of clinical kinase drugs” (Science, 2017) are Kd values, retold here.

Active and inactive are the calls of the source. Cut-off read from the data, not from the text of the source, for most assays here: actives have a measured Kd and inactives only a lower limit.

For experiment [1], the target named is Mitogen-activated protein kinase kinase kinase 4 (Homo sapiens, UniProt Q9Y6R4).
Experiment [2] has as its target Mitogen-activated protein kinase 10 (Homo sapiens, UniProt P53779).
Experiment [3] has as its target Mitogen-activated protein kinase kinase kinase 20 (Homo sapiens, UniProt Q9NYL2).
The target in experiment [4] is STE20-like serine/threonine-protein kinase (Homo sapiens, UniProt Q9H2G2).
Another experiment addresses Ephrin type-A receptor 5 (Homo sapiens, UniProt P54756).
For experiment [5], the target named is T1, Non-receptor tyrosine-protein kinase TNK1 (Homo sapiens, UniProt Q13470).
T1 sequence (Q13470 whole entry): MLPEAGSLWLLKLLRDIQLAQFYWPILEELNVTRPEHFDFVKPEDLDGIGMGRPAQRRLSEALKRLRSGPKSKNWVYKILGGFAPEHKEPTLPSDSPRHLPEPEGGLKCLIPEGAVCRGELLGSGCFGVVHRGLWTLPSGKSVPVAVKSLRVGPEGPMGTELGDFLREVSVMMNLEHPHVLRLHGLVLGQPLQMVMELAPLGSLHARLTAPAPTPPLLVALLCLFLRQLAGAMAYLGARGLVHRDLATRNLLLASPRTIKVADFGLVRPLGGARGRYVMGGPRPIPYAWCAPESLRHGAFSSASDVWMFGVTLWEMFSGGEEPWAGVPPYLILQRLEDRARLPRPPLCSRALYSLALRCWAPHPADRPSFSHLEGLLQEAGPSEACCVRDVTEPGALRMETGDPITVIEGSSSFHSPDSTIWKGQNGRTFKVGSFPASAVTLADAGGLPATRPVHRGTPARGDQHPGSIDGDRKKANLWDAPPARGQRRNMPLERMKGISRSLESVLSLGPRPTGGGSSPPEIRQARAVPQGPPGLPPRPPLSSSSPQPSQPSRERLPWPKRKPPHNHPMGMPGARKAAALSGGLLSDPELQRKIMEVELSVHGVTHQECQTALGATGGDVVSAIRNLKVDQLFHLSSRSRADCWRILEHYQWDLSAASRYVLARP

The target in experiment [6] is BMP-2-inducible protein kinase (Homo sapiens, UniProt Q9NSY1).
Experiment [7] concerns the target Guanine nucleotide-binding protein G(i) subunit alpha-2 (Homo sapiens, UniProt P04899).
For experiment [8], the target named is Calcium/calmodulin-dependent protein kinase type II subunit gamma (Homo sapiens, UniProt Q13555).
Experiment [9] has as its target T2, MAP kinase-activated protein kinase 5 (Homo sapiens, UniProt Q8IW41).
T2 sequence (Q8IW41 whole entry): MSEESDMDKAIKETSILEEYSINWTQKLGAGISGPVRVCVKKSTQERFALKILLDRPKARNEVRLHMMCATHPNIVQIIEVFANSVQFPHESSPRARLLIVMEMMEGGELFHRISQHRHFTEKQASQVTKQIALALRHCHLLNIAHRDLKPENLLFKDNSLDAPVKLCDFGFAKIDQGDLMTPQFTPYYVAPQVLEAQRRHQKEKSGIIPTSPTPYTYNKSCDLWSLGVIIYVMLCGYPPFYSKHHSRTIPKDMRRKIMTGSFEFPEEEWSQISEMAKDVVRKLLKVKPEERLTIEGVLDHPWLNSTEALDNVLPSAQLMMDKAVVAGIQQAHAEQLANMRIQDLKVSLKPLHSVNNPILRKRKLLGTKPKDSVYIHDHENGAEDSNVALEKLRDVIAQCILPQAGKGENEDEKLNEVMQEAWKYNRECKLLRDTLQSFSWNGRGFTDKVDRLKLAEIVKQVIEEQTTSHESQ

Experiment [10] deals with Serine/threonine-protein kinase/endoribonuclease IRE2 (Homo sapiens, UniProt Q76MJ5).
The target of experiment [11] is T3, Signal recognition particle receptor subunit alpha (Homo sapiens, UniProt P08240).
T3 sequence (P08240 whole entry): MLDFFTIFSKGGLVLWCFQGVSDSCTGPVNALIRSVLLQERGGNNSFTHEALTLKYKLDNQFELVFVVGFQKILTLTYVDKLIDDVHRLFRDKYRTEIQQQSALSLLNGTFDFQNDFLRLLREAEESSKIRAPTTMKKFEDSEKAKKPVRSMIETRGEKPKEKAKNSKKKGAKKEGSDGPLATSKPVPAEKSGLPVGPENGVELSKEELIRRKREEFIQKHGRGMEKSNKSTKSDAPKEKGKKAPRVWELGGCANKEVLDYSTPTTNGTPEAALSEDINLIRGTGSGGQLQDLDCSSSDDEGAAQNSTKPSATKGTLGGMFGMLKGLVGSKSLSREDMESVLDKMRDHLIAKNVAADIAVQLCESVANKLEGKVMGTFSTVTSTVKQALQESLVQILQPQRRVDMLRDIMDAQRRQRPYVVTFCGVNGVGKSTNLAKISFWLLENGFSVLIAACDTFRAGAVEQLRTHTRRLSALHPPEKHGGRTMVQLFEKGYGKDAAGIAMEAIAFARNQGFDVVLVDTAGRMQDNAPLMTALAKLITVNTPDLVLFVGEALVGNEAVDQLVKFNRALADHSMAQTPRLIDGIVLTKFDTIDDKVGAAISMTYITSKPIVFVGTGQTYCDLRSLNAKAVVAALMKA

Another experiment concerns the target Ephrin type-A receptor 2 (Homo sapiens, UniProt P29317).
Experiment [12] has as its target Serine/threonine-protein kinase N2 (Homo sapiens, UniProt Q16513).
In experiment [13] the target is Non-receptor tyrosine-protein kinase TYK2 (Homo sapiens, UniProt P29597).
Note: in the data inactive means no Kd found up to 30 µM.

Mitogen-activated protein kinase kinase kinase 20, sequence (Q9NYL2 whole entry): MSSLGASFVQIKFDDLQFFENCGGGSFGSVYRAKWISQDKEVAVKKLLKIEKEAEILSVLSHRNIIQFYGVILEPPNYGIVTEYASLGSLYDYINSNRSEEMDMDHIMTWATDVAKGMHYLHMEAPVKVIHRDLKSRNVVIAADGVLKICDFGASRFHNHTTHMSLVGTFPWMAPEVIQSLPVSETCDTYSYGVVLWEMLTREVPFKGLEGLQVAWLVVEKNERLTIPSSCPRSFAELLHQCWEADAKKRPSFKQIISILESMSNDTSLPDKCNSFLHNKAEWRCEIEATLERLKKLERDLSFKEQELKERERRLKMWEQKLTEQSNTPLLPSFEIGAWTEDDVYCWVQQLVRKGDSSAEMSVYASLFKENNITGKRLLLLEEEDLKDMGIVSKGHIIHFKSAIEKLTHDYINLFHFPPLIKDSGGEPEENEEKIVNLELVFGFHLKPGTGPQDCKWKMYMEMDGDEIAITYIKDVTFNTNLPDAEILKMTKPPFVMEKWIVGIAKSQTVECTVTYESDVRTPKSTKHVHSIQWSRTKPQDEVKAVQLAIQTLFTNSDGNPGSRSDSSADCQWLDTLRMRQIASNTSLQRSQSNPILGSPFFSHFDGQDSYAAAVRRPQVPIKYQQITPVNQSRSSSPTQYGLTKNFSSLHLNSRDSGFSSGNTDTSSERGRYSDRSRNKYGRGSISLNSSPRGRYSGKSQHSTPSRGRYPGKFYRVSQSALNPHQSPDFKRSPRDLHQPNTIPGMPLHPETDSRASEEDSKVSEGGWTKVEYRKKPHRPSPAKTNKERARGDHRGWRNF
BMP-2-inducible protein kinase, sequence (Q9NSY1 whole entry): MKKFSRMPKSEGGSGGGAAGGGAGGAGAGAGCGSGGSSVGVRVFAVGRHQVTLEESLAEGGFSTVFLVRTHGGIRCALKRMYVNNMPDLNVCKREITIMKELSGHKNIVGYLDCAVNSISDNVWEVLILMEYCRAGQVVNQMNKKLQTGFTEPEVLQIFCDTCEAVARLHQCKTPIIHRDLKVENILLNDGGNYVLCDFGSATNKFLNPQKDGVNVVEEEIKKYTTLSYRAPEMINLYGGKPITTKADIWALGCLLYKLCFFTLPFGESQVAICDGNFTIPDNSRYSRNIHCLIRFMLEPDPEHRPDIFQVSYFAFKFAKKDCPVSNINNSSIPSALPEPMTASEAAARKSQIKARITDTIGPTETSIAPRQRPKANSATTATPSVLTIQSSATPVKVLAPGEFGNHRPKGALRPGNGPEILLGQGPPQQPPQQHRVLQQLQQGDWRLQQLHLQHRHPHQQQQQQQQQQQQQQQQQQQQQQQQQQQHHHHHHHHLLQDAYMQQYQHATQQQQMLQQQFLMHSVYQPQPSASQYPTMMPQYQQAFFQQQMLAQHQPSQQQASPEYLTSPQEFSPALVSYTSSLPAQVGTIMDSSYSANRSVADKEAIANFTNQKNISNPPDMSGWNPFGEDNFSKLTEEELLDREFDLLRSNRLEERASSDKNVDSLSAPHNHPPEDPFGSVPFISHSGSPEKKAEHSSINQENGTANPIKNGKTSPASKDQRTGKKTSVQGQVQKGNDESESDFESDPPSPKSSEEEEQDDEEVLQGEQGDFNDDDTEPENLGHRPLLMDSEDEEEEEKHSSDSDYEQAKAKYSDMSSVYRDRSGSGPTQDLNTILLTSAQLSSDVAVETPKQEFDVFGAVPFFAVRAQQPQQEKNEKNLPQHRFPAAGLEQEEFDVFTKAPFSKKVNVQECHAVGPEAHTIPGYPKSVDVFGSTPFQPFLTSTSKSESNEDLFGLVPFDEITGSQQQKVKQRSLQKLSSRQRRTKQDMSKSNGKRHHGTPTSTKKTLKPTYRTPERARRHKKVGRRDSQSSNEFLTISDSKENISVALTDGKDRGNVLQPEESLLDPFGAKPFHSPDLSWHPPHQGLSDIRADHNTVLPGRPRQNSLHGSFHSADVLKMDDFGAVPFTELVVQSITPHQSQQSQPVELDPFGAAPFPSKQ
Ephrin type-A receptor 2, sequence (P29317 whole entry): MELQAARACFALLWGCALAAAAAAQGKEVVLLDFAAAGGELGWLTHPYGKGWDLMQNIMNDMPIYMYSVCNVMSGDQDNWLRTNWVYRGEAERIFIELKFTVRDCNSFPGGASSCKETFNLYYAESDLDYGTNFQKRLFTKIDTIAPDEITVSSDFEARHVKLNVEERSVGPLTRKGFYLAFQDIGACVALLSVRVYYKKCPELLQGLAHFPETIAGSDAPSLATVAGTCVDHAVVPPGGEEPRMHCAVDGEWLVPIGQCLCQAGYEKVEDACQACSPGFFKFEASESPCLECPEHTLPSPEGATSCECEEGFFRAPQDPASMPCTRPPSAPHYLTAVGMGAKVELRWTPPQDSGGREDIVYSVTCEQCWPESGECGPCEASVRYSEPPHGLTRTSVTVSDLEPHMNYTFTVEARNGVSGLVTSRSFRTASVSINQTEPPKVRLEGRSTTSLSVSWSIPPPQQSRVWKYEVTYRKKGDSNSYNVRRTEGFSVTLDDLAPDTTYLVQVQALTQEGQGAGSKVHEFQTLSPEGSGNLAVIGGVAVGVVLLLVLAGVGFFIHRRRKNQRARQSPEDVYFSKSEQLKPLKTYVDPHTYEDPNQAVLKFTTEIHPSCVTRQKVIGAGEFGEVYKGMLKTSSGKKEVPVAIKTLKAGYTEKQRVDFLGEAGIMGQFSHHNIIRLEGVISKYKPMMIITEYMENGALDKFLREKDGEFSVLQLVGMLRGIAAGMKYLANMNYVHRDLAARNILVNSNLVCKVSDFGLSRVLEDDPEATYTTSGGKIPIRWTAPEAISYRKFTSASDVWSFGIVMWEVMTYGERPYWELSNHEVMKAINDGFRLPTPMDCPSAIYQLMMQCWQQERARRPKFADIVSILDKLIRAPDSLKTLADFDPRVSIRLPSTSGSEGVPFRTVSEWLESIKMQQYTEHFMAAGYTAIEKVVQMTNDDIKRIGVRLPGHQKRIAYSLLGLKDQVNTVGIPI
Non-receptor tyrosine-protein kinase TYK2, sequence (P29597 whole entry): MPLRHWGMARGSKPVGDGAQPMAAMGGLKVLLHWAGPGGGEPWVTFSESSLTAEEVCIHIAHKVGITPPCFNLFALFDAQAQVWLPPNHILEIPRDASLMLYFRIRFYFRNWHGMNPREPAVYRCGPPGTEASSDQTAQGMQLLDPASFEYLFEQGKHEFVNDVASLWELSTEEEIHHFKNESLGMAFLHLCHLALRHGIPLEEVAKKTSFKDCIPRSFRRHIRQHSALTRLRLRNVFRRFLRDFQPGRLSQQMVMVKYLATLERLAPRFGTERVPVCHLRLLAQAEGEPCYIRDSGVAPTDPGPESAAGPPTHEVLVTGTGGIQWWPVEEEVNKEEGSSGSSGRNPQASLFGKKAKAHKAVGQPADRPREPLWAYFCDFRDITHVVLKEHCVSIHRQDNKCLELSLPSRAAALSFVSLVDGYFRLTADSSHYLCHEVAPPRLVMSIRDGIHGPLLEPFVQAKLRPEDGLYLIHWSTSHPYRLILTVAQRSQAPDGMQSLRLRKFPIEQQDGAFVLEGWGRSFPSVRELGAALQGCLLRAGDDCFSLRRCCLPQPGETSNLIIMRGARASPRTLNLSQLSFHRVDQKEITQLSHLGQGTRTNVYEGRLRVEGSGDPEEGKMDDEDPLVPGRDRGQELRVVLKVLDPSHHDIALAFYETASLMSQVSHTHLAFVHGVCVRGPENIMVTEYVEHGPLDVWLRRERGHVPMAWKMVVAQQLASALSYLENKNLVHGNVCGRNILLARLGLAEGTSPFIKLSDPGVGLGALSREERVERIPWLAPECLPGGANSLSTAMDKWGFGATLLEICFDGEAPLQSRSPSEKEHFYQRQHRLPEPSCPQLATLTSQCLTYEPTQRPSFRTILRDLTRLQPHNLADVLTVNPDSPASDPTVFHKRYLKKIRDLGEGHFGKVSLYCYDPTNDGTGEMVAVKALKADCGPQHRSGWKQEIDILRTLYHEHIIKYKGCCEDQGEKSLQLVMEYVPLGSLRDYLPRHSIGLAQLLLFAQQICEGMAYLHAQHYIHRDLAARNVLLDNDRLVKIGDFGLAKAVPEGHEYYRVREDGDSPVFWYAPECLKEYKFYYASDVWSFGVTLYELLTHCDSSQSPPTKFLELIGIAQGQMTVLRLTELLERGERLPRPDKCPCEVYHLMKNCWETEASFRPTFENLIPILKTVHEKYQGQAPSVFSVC
Serine/threonine-protein kinase/endoribonuclease IRE2, sequence (Q76MJ5 whole entry): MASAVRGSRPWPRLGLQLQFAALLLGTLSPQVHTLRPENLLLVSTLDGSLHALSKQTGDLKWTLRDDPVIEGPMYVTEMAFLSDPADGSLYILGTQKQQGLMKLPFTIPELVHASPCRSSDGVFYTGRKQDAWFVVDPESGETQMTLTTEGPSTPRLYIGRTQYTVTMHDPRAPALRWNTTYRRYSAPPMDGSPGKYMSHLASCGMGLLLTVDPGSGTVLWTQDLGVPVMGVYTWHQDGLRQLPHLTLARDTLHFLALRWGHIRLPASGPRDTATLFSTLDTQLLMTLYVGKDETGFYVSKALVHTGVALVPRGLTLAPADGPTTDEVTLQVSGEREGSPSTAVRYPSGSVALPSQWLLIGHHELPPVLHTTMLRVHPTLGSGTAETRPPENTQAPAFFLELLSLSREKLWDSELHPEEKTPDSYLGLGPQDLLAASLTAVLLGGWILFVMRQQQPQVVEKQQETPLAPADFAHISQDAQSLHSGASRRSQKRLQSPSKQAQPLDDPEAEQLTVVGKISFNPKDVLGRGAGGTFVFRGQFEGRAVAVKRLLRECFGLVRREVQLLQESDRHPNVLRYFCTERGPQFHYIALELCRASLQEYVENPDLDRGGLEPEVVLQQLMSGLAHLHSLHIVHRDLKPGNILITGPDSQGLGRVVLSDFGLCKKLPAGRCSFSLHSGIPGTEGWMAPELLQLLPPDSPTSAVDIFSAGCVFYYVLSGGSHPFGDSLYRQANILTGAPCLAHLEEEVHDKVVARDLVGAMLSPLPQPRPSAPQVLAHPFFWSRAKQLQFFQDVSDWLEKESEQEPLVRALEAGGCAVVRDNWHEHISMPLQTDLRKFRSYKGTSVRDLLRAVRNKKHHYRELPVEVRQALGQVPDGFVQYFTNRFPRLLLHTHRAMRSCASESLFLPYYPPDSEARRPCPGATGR

In the case of `COc1cc2nccc(Oc3ccc(NC(=O)C4(C(=O)Nc5ccc(F)cc5)CC4)cc3)c2cc1OC` [CABOZANTINIB], the Kd (in experiment [1]; in experiment [2]; in experiment [3]; in experiment [4]; on Ephrin type-A receptor 5; in [5]) was > 30 µM (inactive) each time. For the same compound, the Kd in [6], in [7], in [8], in [9], in [10] and in experiment [11] was > 30 µM (inactive) throughout. The Kd is 0.746 µM (active) on Ephrin type-A receptor 2, > 30 µM (inactive) in [12] and > 30 µM (inactive) in [13].
Turning to `Cc1cc(Nc2nc(N[C@@H](C)c3ncc(F)cn3)ncc2Cl)n[nH]1` [AZD-1480], the Kd in experiment [1] is > 30 µM (inactive); in [2], > 30 µM (inactive); in experiment [3], > 30 µM (inactive); in experiment [4] it was 0.686 µM (active); at Ephrin type-A receptor 5, > 30 µM (inactive); in experiment [5], 1.26 µM (active). The Kd in [6], in experiment [7], in [8], in experiment [9], in [10] and in [11] was > 30 µM (inactive) each time. The Kd (on Ephrin type-A receptor 2; in [12]; in experiment [13]) was > 30 µM (inactive) throughout.
`CNC(=O)c1cccc(-c2ccc3c(N4CCOC[C@@H]4C)nc(N4CCOC[C@@H]4C)nc3n2)c1` [VISTUSERTIB]: the Kd (in experiment [1]; in experiment [2]; in experiment [3]; in experiment [4]; at Ephrin type-A receptor 5; in experiment [5]) was > 30 µM (inactive) throughout. Also, the Kd in [6], in experiment [7], in [8], in experiment [9], in [10] and in experiment [11] was > 30 µM (inactive) in each case. The Kd (at Ephrin type-A receptor 2; in experiment [12]; in experiment [13]) was > 30 µM (inactive) throughout.
On to `O=C(NC[C@H](O)CO)c1ccncc1Nc1ccc(I)cc1F` [PIMASERTIB], for which the Kd (in [1]; in experiment [2]; in experiment [3]; in experiment [4]; at Ephrin type-A receptor 5; in experiment [5]) was > 30 µM (inactive) in each case. The Kd in experiment [6], in experiment [7], in [8], in experiment [9], in [10] and in experiment [11] was > 30 µM (inactive) throughout. The Kd (at Ephrin type-A receptor 2; in experiment [12]; in experiment [13]) was > 30 µM (inactive) each time.
As for `COc1ccc2c(OCc3nnc4ccc(-c5ccccc5)nn34)ccnc2c1` [AMG-208], the Kd (in experiment [1]; in [2]; in [3]; in [4]; on Ephrin type-A receptor 5; in experiment [5]) was > 30 µM (inactive) in each case. Also, the Kd in experiment [6], in experiment [7], in experiment [8], in [9], in experiment [10] and in experiment [11] was > 30 µM (inactive) throughout. Also, the Kd (at Ephrin type-A receptor 2; in experiment [12]; in [13]) was > 30 µM (inactive) each time.

For orientation: Kd means the free concentration of one partner at which half of the binding sites on the other are occupied at equilibrium, for simple one-to-one binding.
